Test results from BindingDB's records for doi:10.1016/0960-894X(96)00376-9 (1996).

Test: Binding affinity against human Alpha-1b adrenergic receptor

Structure (SMILES) | Ki
O=C(c1nc(-c2c[nH]c3ccccc23)c[nH]1)c1c[nH]c2cc(O)ccc12 | 1150 nM
Brc1ccc2c(-c3c[nH]c(-c4c[nH]c5cc(Br)ccc45)n3)c[nH]c2c1 [Nortopsentin A] | 520 nM
Brc1ccc2c(-c3nc(-c4c[nH]c5ccccc45)c[nH]3)c[nH]c2c1 [Nortopsentin B] | 130 nM

Continued, values first:

Ki | Structure (SMILES)
170 nM | Brc1ccc2c(-c3c[nH]c(-c4c[nH]c5ccccc45)n3)c[nH]c2c1 [Nortopsentin C]
740 nM | O=C(c1nc(-c2c[nH]c3cc(Br)ccc23)c[nH]1)c1c[nH]c2cc(O)ccc12 [topsentin B2]
